{"source": "patent EP0937723A1", "about": "“Novel sulfonamides, process for their preparation and medicaments containing them” (Roche Diagnostics GmbH, priority 1998, dated 1999)", "key": {"Pferdethrombin": {"tested_on": "Pferdethrombin", "assay": "Thrombin time in citrated plasma with thrombin reagent, ball coagulometer", "format": "biochemical, Pferd", "details": "500 µM final concentration; time as difference to control (control ca. 24 s)", "experimental": "(§1) Neun Teile frisches Blut gesunder Spender werden mit einem Teil Natriumcitratlösung (0.11 Mol/l) gemischt und bei ca. 3000 U/min 10 Minuten bei Raumtemperatur zentrifügiert. Das Plasma wird abpipettiert und kann bei Raumtemperatur ca. 8 h aufbewahrt werden.\n200 µl Citratplasma werden in einem Kugelkoagulometer (KC10 der Fa. Amelung) 2 Minuten bei 37°C inkubiert. Zu 190 µl vortemperiertem Thrombin-Reagenz (Boehringer Mannheim GmbH; enthält ca. 3 U/ml Pferdethrombin und 0.0125 M Ca^++ gibt man 10 µl Dimethylsulfoxid (DMSO) oder eine Lösung der Wirksubstanz in DMSO. Mit Zugabe dieser 200 µl Lösung zum Plasma wird eine Stoppuhr gestartet und der Zeitpunkt bis zum Eintritt der Gerinnung bestimmt. Die Thrombinzeit beträgt bei den Kontrollmessungen ca. 24 Sekunden und wird durch Wirksubstanzen verlängert. Sofern bei den Messungen nach 5 Minuten keine Gerinnung eintrat, wurde der Versuch gestoppt (>300).\nIn Tabelle 1 sind die gemessenen Thrombinzeiten in Sekunden als Differenz zur Kontrolle angegeben. Die Konzentrationen der Wirksubstanzen betrugen im Endvolumen 500 µM (TT 500)."}, "Citratplasma": {"tested_on": "Citratplasma", "assay": "Activated partial thromboplastin time (APTT) in citrated plasma, ball coagulometer", "format": "biochemical", "details": "time as difference to control (control ca. 28-35 s)", "experimental": "as §1\n100 µl Citratplasma und 100 µl APTT-Reagenz (Diagnostica Stago / Boehringer Mannheim GmbH; enthält Lyophilisat Cephalin mit mikrokristallinem Kieselguraktivator) werden zusammen mit 10 µl Dimethylsulfoxid (DMSO) oder 10 µl einer Lösung der Wirksubstanz in DMSO in einem Kugelkoagulometer (KC10 der Fa. Amelung) 3 Minuten bei 37°C inkubiert. Mit Zugabe von 100 µl 0.025 M Calciumchlorid-Lösung wird eine Stoppuhr gestartet und der Zeitpunkt bis zum Eintritt der Gerinnung bestimmt. Die APTT beträgt bei den Kontrollmessungen ca. 28 -35 Sekunden und wird durch Wirksubstanzen verlängert. Sofern bei den Messungen nach 5 Minuten keine Gerinnung eintrat, wurde der Versuch gestoppt (>300).\nIn Tabelle 1 sind die gemessenen APTT-Zeiten in Sekunden als Differenz zur Kontrolle angegeben. Die Konzentrationen der Wirksubstanzen betrugen im Endvolumen 1000 µM (APTT 1000), 100 µM (APTT 100), 10 µM (APTT 10), 1 µM (APTT 1)."}, "humanem Faktor Xa": {"molecular_target": "T1, humanem Faktor Xa (Homo sapiens, UniProt P00742)", "T1 construct": "humanem Faktor Xa; purchased Boehringer Mannheim GmbH", "T1 sequence (P00742 235-488 limits assumed)": "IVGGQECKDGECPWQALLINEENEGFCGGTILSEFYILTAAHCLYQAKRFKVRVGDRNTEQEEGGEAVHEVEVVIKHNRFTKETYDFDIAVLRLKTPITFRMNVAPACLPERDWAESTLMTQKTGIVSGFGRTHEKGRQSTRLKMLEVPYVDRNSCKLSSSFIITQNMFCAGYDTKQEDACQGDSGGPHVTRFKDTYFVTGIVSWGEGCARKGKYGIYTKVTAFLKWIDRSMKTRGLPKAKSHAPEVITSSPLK", "T1 sequence (P00742 41-179 partner limits assumed)": "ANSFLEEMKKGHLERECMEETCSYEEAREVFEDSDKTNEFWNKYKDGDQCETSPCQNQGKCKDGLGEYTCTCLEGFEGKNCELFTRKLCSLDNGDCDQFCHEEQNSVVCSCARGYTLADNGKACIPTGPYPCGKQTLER", "assay": "Inhibition constant Ki, chromogenic substrate Chromozym X, photometric at 405 nm", "format": "biochemical", "details": "pH 7.5, 25°C, 0.1 M phosphate buffer, 0.2 M NaCl; read-out: Ki (fXa)", "experimental": "(§2) Die kinetischen Messungen wurden in 0.2 M Kochsalz und 0.5 % Polyethylenglycol 6000 enthaltendem 0.1 M Phosphatpuffer (Herstellung siehe unten) bei pH 7.5 und 25°C in Polystyrol-Halbmikroküvetten in einem Gesamtvolumen von 1 ml durchgeführt . Die Reaktionen wurden durch Zugabe von Enzym zu vorinkubierten Lösungen, die entweder Dimethylsulfoxid (Kontrolle) oder Lösungen der Testsubstanz in DMSO (Inhibitor-Stocklösungen: 10 mM in DMSO) enthielten, gestartet. Die Zunahme der Extinktion bei 405 nm als Folge der Freisetzung von 4-Nitroanilin aus dem Substrat wurde photometrisch über einen Zeitraum von 12 Minuten verfolgt. Im Abstand von 20 Sekunden wurden Meßwerte (Extinktion vs. Zeit) ermittelt und diese Daten per Computer gespeichert.\n(§3) Zur Bestimmung der Inhibitionskonstanten Ki wurde wie folgt vorgegangen: Die Geschwindigkeiten V0 (Extinktionsänderung pro Sekunde; Messungen ohne Inhibitor) und Vi (Extinktionsänderung pro Sekunde; Messungen mit Inhibitor) wurden durch lineare Regression bestimmt, wobei nur die Meßpunkte berücksichtigt wurden, bei der sich die Substratkonzentration um weniger als 15% verringerte. Aus einer Meßreihe (konstante Inhibitorkonzentration, variable Substratkonzentrationen) bestimmte man KM und VMAX durch nichtlinearen Fit auf die Gleichung V =(Vmax *[S])/([S]+KM) [formula] […]"}, "Humanes α-Thrombin": {"molecular_target": "T2, Humanes α-Thrombin (Homo sapiens, UniProt P00734)", "T2 construct": "Humanes α-Thrombin; purchased Sigma", "assay": "Inhibition constant Ki, chromogenic substrate S-2238, photometric at 405 nm", "format": "biochemical", "details": "pH 7.5, 25°C, 0.1 M phosphate buffer, 0.2 M NaCl", "experimental": "as §2, §3"}, "[1]": {"molecular_target": "T3, bovines pankreatisches Trypsin (Bos taurus, UniProt P00760)", "T3 construct": "bovines pankreatisches Trypsin (Sigma); purchased Sigma; host or cells: bovine pancreas", "T3 sequence (P00760 24-246)": "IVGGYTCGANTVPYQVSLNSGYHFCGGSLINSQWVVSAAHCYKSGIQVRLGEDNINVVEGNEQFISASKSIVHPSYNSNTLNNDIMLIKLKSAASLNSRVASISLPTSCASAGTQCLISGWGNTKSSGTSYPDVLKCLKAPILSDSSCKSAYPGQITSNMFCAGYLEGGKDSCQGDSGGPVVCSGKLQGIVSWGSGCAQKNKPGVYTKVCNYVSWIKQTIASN", "assay": "Inhibition constant Ki, chromogenic substrate S-2238, photometric at 405 nm", "format": "biochemical, bovin", "details": "pH 7.5, 25°C, 0.1 M phosphate buffer, 0.2 M NaCl", "experimental": "as §2, §3"}}, "note": "Counter-ions that a name gives are not always drawn."}
{"smiles": "N=C(N)N1CCC(Oc2ccc(S(=O)(=O)Nc3ccc4c(c3)CN(C(=N)N)CC4)cc2)CC1", "note": "[Beispiel 1, 7-[4-(1-Carbamimidoyl-piperidin-4-yloxy)-benzolsulfonylamino]-3,4-dihydro-1H-isochinolin-2-carboxamidin-dihydrochlorid]", "values": [{"measurement": "TT 500", "setting": "Pferdethrombin", "result": 40, "unit": "Sekunden"}, {"measurement": "APTT 1", "setting": "Citratplasma; 1 µM final concentration", "result": 12, "unit": "Sekunden"}, {"measurement": "APTT 10", "setting": "Citratplasma; 10 µM final concentration", "result": 50, "unit": "Sekunden"}, {"measurement": "APTT 100", "setting": "Citratplasma; 100 µM final concentration", "result": 140, "unit": "Sekunden"}, {"measurement": "APTT 1000", "setting": "Citratplasma; 1000 µM final concentration, test stopped after 5 min (>300)", "result": "> 300", "unit": "Sekunden"}, {"measurement": "Ki", "setting": "humanem Faktor Xa", "result": 0.01, "unit": "µM"}, {"measurement": "Ki", "setting": "Humanes α-Thrombin", "result": 2, "unit": "µM"}, {"measurement": "Ki", "setting": "[1]", "result": 0.1, "unit": "µM"}]}
